Results published in patent US20220402935A1, “HETEROCYCLIC COMPOUND” (FIMECS, INC., priority 2019, published 2022).

Assays:
[1] = target: T1, human XIAP_BIR3 domain purified protein (Homo sapiens, UniProt P98170); assay: XIAP binding inhibitory activity (HTRF, b-Smac ligand); conditions: second symbol of cell; read-out: XIAP binding inhibition IC50 value
T1 construct: purchased R & D
Procedure, shortened: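 HTRF competition between compound and C-terminally biotinylated Smac peptide AVPIAQK for His-tagged XIAP BIR3, both diluted to 90 nM before addition, in pH 7.5 HEPES/NaCl/BSA/Triton buffer. Eu-cryptate anti-His and streptavidin-XL665 added, ≥4 h at room temperature in the dark; inhibition % from 665/615 nm ratio versus no-compound wells.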

IRAK-M [2] = target: T2, IRAK-M (Homo sapiens, UniProt Q9Y616); assay: In vitro degradation activity of target protein (IRAK-M ELISA in THP1 cells); assay type: cell-based; design: host or cells: THP1 cells; conditions: 24 hours, second symbol of cell, read-out: IRAK-M 50% degradation concentration (DC50 value)
T2 sequence (Q9Y616 1-596): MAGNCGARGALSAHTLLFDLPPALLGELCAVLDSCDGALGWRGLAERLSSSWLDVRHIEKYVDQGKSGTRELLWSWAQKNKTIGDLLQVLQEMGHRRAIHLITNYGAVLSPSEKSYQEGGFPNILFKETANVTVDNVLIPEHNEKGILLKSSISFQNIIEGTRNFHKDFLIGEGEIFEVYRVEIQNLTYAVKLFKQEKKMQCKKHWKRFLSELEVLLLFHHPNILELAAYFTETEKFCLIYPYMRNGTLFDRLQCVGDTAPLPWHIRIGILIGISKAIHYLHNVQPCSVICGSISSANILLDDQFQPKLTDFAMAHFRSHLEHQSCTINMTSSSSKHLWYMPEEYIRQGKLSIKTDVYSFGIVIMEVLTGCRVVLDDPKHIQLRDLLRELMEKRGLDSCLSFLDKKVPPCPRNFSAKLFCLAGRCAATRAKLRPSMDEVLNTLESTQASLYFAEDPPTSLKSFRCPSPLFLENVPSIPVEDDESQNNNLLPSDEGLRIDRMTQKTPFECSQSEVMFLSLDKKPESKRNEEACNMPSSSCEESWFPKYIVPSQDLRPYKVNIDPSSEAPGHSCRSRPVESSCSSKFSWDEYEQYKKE
Method: In vitro degradation activities of target protein of the example compounds were evaluated using Enzyme-linked immuno-sorbent assay (ELISA) by the following assay steps. THP1 cells (ATCC, TIB-202) were cultured in RPMI-1640 supplemented with 10% FBS, lx sodium pyruvate, lx HEPES, D-(+)-glucose and 1% penicillin/streptomycin. THP1 cells were seeded at a density of 1×10^6 cells/well in 24-well plate and treated with DMSO control or test compound, and then incubated for 24 hours. The cells were collected and lysed on ice for 30 minutes in lysis buffer (PBS containing 0.1% Triton X-100) containing a protease inhibitor cocktail (Roche, Cat #11836170001). The lysates were sonicated for 30 sec ON/30 sec OFF for ten cycles and centrifuged for 10 minutes at 13k rpm at 4° C. Protein concentrations were determined by the BCA assay (Sigma, Cat #QPBCA-1KT). The ELISA assay was performed using the Human IRAK3/IRAKM/IRAK-M ELISA Kit (LifeSpan BioSciences, Cat #LS-F35271), and the protein levels of IRAK-M were evaluated according to the kit protocol. As to the IRAK-M degradation rate of test compounds, protein degradation rate (%) when the concentration of the test compound is […] described as A≥75%, 50%≤B<75%, 25%≤C<50%, D<25%, or 50% degradation concentration (DC50 value) described as A<0.03 μM, 0.03 μM≤B<0.1 μM, 0.1 μM≤C<0.3 μM, 0.3 μM≤D<1 μM, is shown in the table below.

IRAK-M [3] = target: T2, IRAK-M; assay: IRAK-M binding inhibitory activity (KINOMEscan active site-dependent competitive assay); design: purchased Eurofins Discover X; conditions: concentration of the test compound 1 μM; first symbol of cell; read-out: IRAK-M binding inhibition activity % Ctrl
Procedure, shortened: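 Active site-dependent competition binding assay (KINOMEscan) against human IRAK-M. Result expressed as % Ctrl = (compound signal − positive control signal)/(DMSO signal − positive control signal) × 100, where DMSO = 100% Ctrl and control compound = 0% Ctrl.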

T1 sequence (P98170 252-356 limits assumed): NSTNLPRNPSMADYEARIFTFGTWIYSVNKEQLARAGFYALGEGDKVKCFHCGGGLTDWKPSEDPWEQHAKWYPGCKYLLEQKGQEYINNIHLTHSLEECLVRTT

Row | IC50 [1] | DC50 (IRAK-M [2]) | remaining binding at 1 µM (IRAK-M [3]) | Compound
1 | 3000 to 30000 nM | 300 to 1000 nM | 25 to 50% | CN[C@@H](C)C(=O)N[C@H](C(=O)N1CCN(C(=O)c2cc3cc(F)c(F)cc3n2CC(=O)N2CCOC[C@H]2COc2cc(CN3CCC(Oc4ccnc5ccsc45)CC3)on2)CC1)C1CCCCC1 [Example 44, (S)-N-((S)-1-cyclohexyl-2-(4-(5,6-difluoro-1-(2-oxo-2-((S)-3-(((5-((4-(thieno[3,2-b]pyridin-7-yloxy)piperidin-1-yl)methyl)isoxazol-3-yl)oxy)methyl)morpholino)ethyl)-1H-indole-2-carbonyl)piperazin-1-yl)-2-oxoethyl)-2-(methylamino)propanamide]
2 | 300 to 3000 nM | 100 to 300 nM | < 25% | CN[C@@H](C)C(=O)N[C@H](C(=O)N1CCN(C(=O)c2cc3c(OCCOCCOCCOCCOc4cc(CN5CCC(Oc6ccnc7ccsc67)CC5)on4)c(F)c(F)cc3n2C)CC1)C1CCCCC1 [Example 51, (S)-N-((S)-1-cyclohexyl-2-(4-(5,6-difluoro-1-methyl-4-(2-(2-(2-(2-((5-((4-(thieno[3,2-b]pyridin-7-yloxy)piperidin-1-yl)methyl)isoxazol-3-yl)oxy)ethoxy)ethoxy)ethoxy)ethoxy)-1H-indole-2-carbonyl)piperazin-1-yl)-2-oxoethyl)-2-(methylamino)propanamide]
3 | < 300 nM | 300 to 1000 nM | < 25% | CN[C@@H](C)C(=O)N[C@H](C(=O)N1CCC[C@H]1c1nc(C(=O)c2cccc(OCCOCCOCCOc3cc(CN4CCC(Oc5ccnc6ccsc56)CC4)on3)c2)cs1)C1CCCCC1 [Example 59, (S)-N-((S)-1-cyclohexyl-2-oxo-2-((S)-2-(4-(3-(2-(2-(2-((5-((4-(thieno[3,2-b]pyridin-7-yloxy)piperidin-1-yl)methyl)isoxazol-3-yl)oxy)ethoxy)ethoxy)ethoxy)benzoyl)thiazol-2-yl)pyrrolidin-1-yl)ethyl)-2-(methylamino)propanamide]
